Results from the NIST ThermoML archive (doi:10.1016/j.jct.2012.04.029).

Details: Liquid, Ebulliometric method (Recirculating still)

COCC(C)O (stereo not drawn) [1-methoxy-2-propanol]
Details	vapor or sublimation pressure [kPa]
342.3 K	15
352.5 K	23.5
360.1 K	32
367.4 K	42.1
371.6 K	49.1
376 K	57.6
380 K	66.1
383.5 K	74.6
386.9 K	83.3
390.1 K	92.6
392.8 K	99.9
397.9 K	116.9
400 K	125.5
402.2 K	134
404.3 K	142.5
406.3 K	151
408.2 K	159.5
410 K	168
411.8 K	176.5

COCCO [2-methoxyethan-1-ol]
Details	vapor or sublimation pressure [kPa]
346.4 K	15
356.9 K	23.5
364.7 K	32
376 K	49
380.6 K	57.5
384.5 K	66
388.1 K	74.5
391.3 K	83
394.4 K	91.5
397.2 K	100
400.1 K	108.5
402.6 K	117
404.9 K	125.5
407 K	134
409.1 K	142.5
411.1 K	151
412.9 K	159.5
414.7 K	168
416.6 K	176.5
